Assay [1] concerns Human adult and elderly PBMCs. Description: Stimulation of adult and elderly PBMCs, TNF and IL-1β by ELISA. It is filed as cell-based. As to the method:
(FIG. 2A) Human adult (top) and elderly (bottom) PBMCs stimulated for 18 hours with the TLR7/8 agonist R848 and 24 confirmed hit compounds from TNF AlphaLISA screen. TNF (left panels) and IL-1β (right panels) were assessed in cell-free supernatants by ELISA. Data are shown as median and interquartile range of N=5.
(§1) ELISAs and Multiplex-Analyte Assays. Supernatants derived from human PBMCs and DC stimulations were assayed by ELISA for TNF (ThermoFisher Scientific; Waltham, Mass., USA). Cytokine and chemokine expression profiles (e.g., IFNγ, IL-10, IL-12 (p70), IL-1β, IL-6, IL-8, MIP-1α/CCL3, TNF and GM-CSF) in cell culture supernatants were measured using a customized 9-plex Milliplex® Human Th17 Magnetic Bead Panel according to the manufacturer's instructions (Millipore, Chicago, Ill., USA). Assays were read and analyzed on the Luminex® 100/200™ System and xPOTENT® software (Luminex, Austin, Tex.). A minimum threshold was set at the minimum detectable concentration for each individual assay, defined as three standard deviations above the mean background.
In vitro PBMC stimulation. PBMCs were isolated from blood using a Ficoll density gradient. PBMCs either used fresh or stored at 5×10^7 cells per vial in 1 mL RPMI containing 20% autologous plasma and 10% DMSO at −80° C. until use. […]

Assay [2] relates to human adult PBMCs. Description: 9-plex multiplex cytokine assay after stimulation of adult PBMCs. Particulars: 0.1 μM-33 μM, 18 hours, 10% autologous plasma, N=4; compared with R848. It is filed as cell-based. As to the method:
Shown is a 9-plex multiplex cytokine assay after stimulation of adult peripheral blood mononuclear cells (PBMCs) with compound 037 or R848 at four different concentrations (0.1 μM-33 μM). Radar plots of immune polarizing cytokine production from human adult PBMCs stimulated for 18 hours in 10% autologous plasma, represented as fold-change over RPMI unstimulated control (N=4).
as §1

The test system of the next assay is THP1-Lucia cells. Description: NF-kB-induced Luminescence Assay in THP1-Lucia cells. It is filed as cell-based, human. Particulars: in comparison to positive control R848, N=4. As to the method: (FIG. 5A) Human adult PBMCs were stimulated for 18 hours with the positive control compound R848 or compound 037 and its analogs at 33 μM. Production human TNF was measured in cell-free supernatants by ELISA (N=5). […] Results are shown as the median, the 25th and 75th percentiles (boxes) and the 5th and 95th percentiles (whiskers). **p<0.01 determined by repeated measure one-way ANOVA with Dunnett's multiple comparison test on log-transformed data and comparing each compound with DMSO (control condition).
THP-1 Cell Line and Culture Conditions. The THP1-Lucia™ cell line was obtained from Invivogen (San Diego, Calif.). THP1-Lucia cells, which are human monocytic cells derived from the blood of a child with leukemia, contain an NF-kB-inducible Luc reporter construct. This allows NF-kB activation to be measured by quantifying the luminescence from the secreted luciferase enzyme. THP1-Lucia cells were cultured in RPMI 1640 supplemented with 10% non-heat inactivated fetal bovine serum (FBS), 10 mM HEPES, 1.0 mM sodium pyruvate, 50 ug/ml Pen-Strep, and 100 ug/mL Normocin™. Once cultured, the cells were stored in a 37° C. incubator with 5% CO2 and a humidified atmosphere. […]
NF-kB-induced Luminescence Assay. […] Immediately after adding the substrate, the luminescence was read using a PerkinElmer Envision plate reader.

Assay [3] relates to primary human blood mononuclear cells (PBMC). Description: TNF AlphaLISA screen on primary human PBMCs. It is filed as cell-based. Particulars: hit = robust Z score >2 in both duplicates and in at least 2 of 3 donors. As to the method:
To identify immunomodulators/adjuvants that robustly activate human immune cells, ˜200,000 small molecules were tested against THP1 NF-κB reporter cells in a screen. As there is evidence that cell culture lines such as THP-1 cells may not model responses of natural primary human leukocytes, smaller-scale novel high throughput screening methodology was also employed, in which 9,000 commercially available compounds (focusing on small molecule library plates that had relatively high # of hits form the THP-1 screen) were screened using primary human blood mononuclear cells (PBMC) from three different adult human donors (TNFαLISA Assay) (FIGS. 1A-1C).
TNF AlphaLISA screen was comprised of three parts: 1) human peripheral blood collection and PBMC isolation—human adult peripheral blood was collected with written consent. PBMCs were isolated from the blood using Ficoll density gradient. […]
Based on antibody-coated fluorometric excitation/emission beads, the Alpha technology (PerkinElmer) enables the detection and screening of target molecules, in this case TNFα, in a no-wash, highly sensitive, quantitative assay compatible with high throughput screening.
TNFαLISA Assay. […] Viability was assessed by trypan blue staining and cells were then resuspended to 6.67×10^5 viable cells/mL in DMEM with 10% autologous plasma. […]
For orientation: Bead proximity is the source of the signal in Alpha formats.

A further assay concerns mouse splenocytes. In words: Splenocyte in vitro stimulation, murine IL-6 by ELISA. The class given is cell-based, C57BL/6 mice. Particulars: 33 μM, 18 hours.
Assay [4] has as its system human adult PBMCs. In words: In vitro PBMC stimulation, TNF production by ELISA (Table 1). Particulars: 18 hours. It is filed as cell-based. As to the method: (§2) Human adult PBMCs were stimulated for 18 hours with compound 037 and its analogs at 33 μM. Production of human TNF was assessed in cell-free supernatants by ELISA. Results are shown as the median, the 25th and 75th percentiles (boxes) and the 5th and 95th percentiles (whiskers) and expressed as percentage TNF production (TNF %) as compared to R848 (FIG. 6A) or TNF concentration in ng/ml (FIG. 6B) (N=3-5). **p<0.01 determined by repeated measure one-way ANOVA with Dunnett's multiple comparison test on log-transformed data and comparing each compound with DMSO (control condition).
as §2, with “7A)” for “6A)”, “7B) (N=5). Analogs are ranked left to right by TNF % (compound 037 on the far left). Compound 037 analogs have been classified in the following categories according to TNF %: high activity—class A: TNF %>15%; medium activity—class B: 1%<TNF %≤15%; low activity—class C: TNF %≤1%.” for “6B) (N=3-5).”
Table 1 provides the activity of exemplary compounds on stimulating TNF production in PBMCs as compared to the benchmark compound R848. Specifically, TNF production was measured by ELISA after stimulation of adult PBMCs with compound 037 analog family or the compound R848 at 33 μM for 18 hours. […]
ELISAs and Multiplex-Analyte Assays. […] Cytokine and chemokine expression profiles (e.g., IFNγ, IL-10, IL-12 (p70), IL-1β, IL-6, IL-8, MIP-1α/CCL3, TNF and GM-CSF) in cell culture supernatants were measured using a customized 9-plex Milliplex® Human Th17 Magnetic Bead Panel according to the manufacturer's instructions (Millipore, Chicago, Ill., USA). […]
In general terms: In an ELISA, binding on a coated surface is turned into a signal by an enzyme label.

Structures are written as SMILES.

From US11730810B2, “Composition comprising an antigen and a substituted imidazo[1,2-a]pyrimidine for enhancing human immune response” (Children's Medical Center Corporation, priority 2017, dated 2023) come the findings set out here.

As to `CCC(C(=O)Nc1cc(-c2cn3cccnc3n2)ccc1C)c1ccccc1` (stereo not drawn) [Compound 37], the “induction of TNF and IL-1β” value in assay [1] (adult and elderly PBMCs stimulated for 18 hours, N=5) was “induce TNF and IL-1β”. For the same molecule, the “potency rank as inducer of innate immune cytokines among 24 confirmed hits” value in assay [1] (adult and elderly PBMCs, 18 hours) is “most potent inducers of innate immune cytokines”. Moreover, the “cytokine response (9-plex), fold-change over RPMI unstimulated control” value in the assay on human adult PBMCs [2] is “broad concentration-dependent cytokine response”. Further, in the assay with THP1-Lucia cells, the “NF-κB-driven expression of luciferase” value was “little activity”. In addition, in assay [3], the “hit in PBMC TNFαLISA screen” value was “identified”.
In the case of `Cc1cnc2nc(-c3ccc(C)c(NC(=O)c4ccccc4C(F)(F)F)c3)cn2c1` [FRF-02-144-3, N-(2-Methyl-5-(6-methylimidazo[1,2-a]pyrimidin-2-yl)phenyl)-2-(trifluoromethyl)benzamide], the “activation of mouse splenocytes (murine IL-6) and human PBMCs (TNF)” value with mouse splenocytes is “activates both human PBMCs and mouse splenocytes”.
As for `Cc1ccc(-c2cn3cc(F)cnc3n2)cc1NC(=O)C(c1ccccc1)C(C)C` (stereo not drawn) [FRF-03-082, N-(5-(6-Fluoroimidazo[1,2-a]pyrimidin-2-yl)-2-methylphenyl)-3-methyl-2-phenylbutanamide], the “TNF (Median)” value in the assay with human adult PBMCs [4] (33 μM, ELISA, median of N=3-5, no unit in table (FIGS. 6B/7B express TNF concentration in ng/ml)) was found to be 1.008. For the same molecule, in the assay with human adult PBMCs [4] (classified according to TNF % vs R848, 33 μM), the Activity class result was “A (high activity—class A: TNF % >15%)”. The “TNF % (Median)” value in the assay with human adult PBMCs [4] (median percentage TNF production as compared to R848, 33 μM) is reported as 41.65%.
